According to US9376396B2, “Acylaminocycloalkyl compounds suitable for treating disorders that respond to modulation of dopamine D3 receptor” (AbbVie Deutschland GmbH & Co. KG, priority 2012, dated 2016):

How the values were obtained:
[1] = molecular target: T1, human dopamine D2L receptors (long isoform) (Homo sapiens, UniProt P14416); assay: Receptor binding study, dopamine D2L receptor ([125I]iodospiperone displacement), selectivity vs D3; conditions: selectivity ratio, HEK-293 membranes
T1 construct: expressed in transfected cells; host or cells: HEK-293
T1 sequence (P14416 whole entry, canonical isoform): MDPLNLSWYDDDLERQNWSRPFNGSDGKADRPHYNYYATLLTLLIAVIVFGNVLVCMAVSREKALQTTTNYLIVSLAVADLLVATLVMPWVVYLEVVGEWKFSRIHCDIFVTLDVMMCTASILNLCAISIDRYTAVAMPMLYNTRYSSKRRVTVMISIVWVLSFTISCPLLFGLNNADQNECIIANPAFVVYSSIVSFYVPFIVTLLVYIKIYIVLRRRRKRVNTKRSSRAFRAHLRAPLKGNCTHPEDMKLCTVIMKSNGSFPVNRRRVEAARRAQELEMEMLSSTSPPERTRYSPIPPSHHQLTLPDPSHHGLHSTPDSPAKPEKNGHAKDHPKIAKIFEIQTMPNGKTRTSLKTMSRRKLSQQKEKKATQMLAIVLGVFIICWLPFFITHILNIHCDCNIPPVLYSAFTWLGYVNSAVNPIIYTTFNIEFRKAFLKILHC
Procedure: (§1) The substance to be tested was either dissolved in methanol/Chremophor® (BASF SE) or in dimethyl sulfoxide and then diluted with water to the desired concentration.
(§2) Each assay mixture was run in triplicate. • The incubation buffer contained 50 mM tris, 120 mM NaCl, 5 mM KCl, 2 mM CaCl2, 2 mM MgCl2 and 0.1% bovine serum albumin, 10 μM quinolone and 0.1% ascorbic acid (prepared fresh daily). […] Each assay mixture was run in triplicate. • The incubation buffer contained 50 mM tris, 120 mM NaCl, 5 mM KCl, 2 mM CaCl2, 2 mM MgCl2 and 0.1% bovine serum albumin. The buffer was adjusted to pH 7.4 with HCl. c) Measurement and Analysis: • After having been incubated at 25° C. for 60 minutes, the assay mixtures were filtered through a Whatman GF/B glass fiber filter under vacuum using a cell collecting device. The filters were transferred to scintillation viols using a filter transfer system. After 4 ml of Ultima Gold® (Packard) have been added, the samples were shaken for one hour and the radioactivity was then counted in a Beta-Counter (Packard, Tricarb 2000 or 2200CA).

[2] = Determination of the microsomal half-life / microsomal clearance, human; type: in vitro ADME; conditions: human liver microsomes, 0.5 μM test substance, 0.25 mg microsomal protein/ml, NADPH, 37° C.
Procedure: (§3) The metabolic stability of the compounds of the invention was determined in the following assay.
(§4) The test substances were incubated in a concentration of 0.5 μM as follows:
(§5) 0.5 μM test substance are preincubated together with liver microsomes from different species (from rat, human or other species) (0.25 mg of microsomal protein/ml) in 0.05 M potassium phosphate buffer of pH 7.4 in microtiter plates at 37° C. for 5 min. The reaction is started by adding NADPH (1 mg/mL). After 0, 5, 10, 15, 20 and 30 min, 50 μl aliquots are removed, and the reaction is immediately stopped and cooled with the same volume of acetonitrile. The samples are frozen until analyzed. The remaining concentration of undegraded test substance is determined by MSMS. The half-life (T½) is determined from the gradient of the signal of test substance/unit time plot, it being possible to calculate the half-life of the test substance, assuming first order kinetics, from the decrease in the concentration of the compound with time. The microsomal clearance (mCl) is calculated from mCl=ln 2/T½/(content of microsomal protein in mg/ml)×1000 [ml/min/mg] (modified from references: Di, The Society for Biomoleculur Screening, 2003, 453-462; Obach, DMD, 1999 vol 27. N 11, 1350-1359).

[3] = Determination of the microsomal half-life / microsomal clearance, rat; type: in vitro ADME; conditions: rat liver microsomes, 0.5 μM test substance, 0.25 mg microsomal protein/ml, NADPH, 37° C.
Procedure: as §3, §4, §5

[4] = molecular target: T2, human dopamine D3 receptors (Homo sapiens, UniProt P35462); assay: Receptor binding study, dopamine D3 receptor ([125I]-iodosulpride displacement); conditions: membranes of HEK-293 cells, 0.1 nM [125I]-iodosulpride, 25° C., 60 minutes
T2 construct: expressed in transfected cells; host or cells: HEK-293
T2 sequence (P35462 whole entry): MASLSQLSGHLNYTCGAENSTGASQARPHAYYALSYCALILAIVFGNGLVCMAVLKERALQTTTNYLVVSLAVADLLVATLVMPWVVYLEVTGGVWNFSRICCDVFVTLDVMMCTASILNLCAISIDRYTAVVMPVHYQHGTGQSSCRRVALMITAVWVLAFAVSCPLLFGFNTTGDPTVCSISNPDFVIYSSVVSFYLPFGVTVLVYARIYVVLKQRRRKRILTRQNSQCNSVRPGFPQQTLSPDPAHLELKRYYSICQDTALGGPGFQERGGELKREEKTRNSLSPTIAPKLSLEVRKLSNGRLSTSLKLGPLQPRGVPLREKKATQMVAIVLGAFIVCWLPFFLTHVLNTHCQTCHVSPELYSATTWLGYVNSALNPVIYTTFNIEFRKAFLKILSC
Procedure: as §1, §2

hERG cardiac K+ channel = molecular target: T3, hERG cardiac K+ channel (Homo sapiens, UniProt Q12809); assay: Blocking the hERG channel ([3H]dofetilide displacement); type: binding; conditions: membrane homogenate from HEK 293 cells expressing hERG
T3 construct: expressed in transfected cells; host or cells: HEK-293
T3 sequence (Q12809 whole entry): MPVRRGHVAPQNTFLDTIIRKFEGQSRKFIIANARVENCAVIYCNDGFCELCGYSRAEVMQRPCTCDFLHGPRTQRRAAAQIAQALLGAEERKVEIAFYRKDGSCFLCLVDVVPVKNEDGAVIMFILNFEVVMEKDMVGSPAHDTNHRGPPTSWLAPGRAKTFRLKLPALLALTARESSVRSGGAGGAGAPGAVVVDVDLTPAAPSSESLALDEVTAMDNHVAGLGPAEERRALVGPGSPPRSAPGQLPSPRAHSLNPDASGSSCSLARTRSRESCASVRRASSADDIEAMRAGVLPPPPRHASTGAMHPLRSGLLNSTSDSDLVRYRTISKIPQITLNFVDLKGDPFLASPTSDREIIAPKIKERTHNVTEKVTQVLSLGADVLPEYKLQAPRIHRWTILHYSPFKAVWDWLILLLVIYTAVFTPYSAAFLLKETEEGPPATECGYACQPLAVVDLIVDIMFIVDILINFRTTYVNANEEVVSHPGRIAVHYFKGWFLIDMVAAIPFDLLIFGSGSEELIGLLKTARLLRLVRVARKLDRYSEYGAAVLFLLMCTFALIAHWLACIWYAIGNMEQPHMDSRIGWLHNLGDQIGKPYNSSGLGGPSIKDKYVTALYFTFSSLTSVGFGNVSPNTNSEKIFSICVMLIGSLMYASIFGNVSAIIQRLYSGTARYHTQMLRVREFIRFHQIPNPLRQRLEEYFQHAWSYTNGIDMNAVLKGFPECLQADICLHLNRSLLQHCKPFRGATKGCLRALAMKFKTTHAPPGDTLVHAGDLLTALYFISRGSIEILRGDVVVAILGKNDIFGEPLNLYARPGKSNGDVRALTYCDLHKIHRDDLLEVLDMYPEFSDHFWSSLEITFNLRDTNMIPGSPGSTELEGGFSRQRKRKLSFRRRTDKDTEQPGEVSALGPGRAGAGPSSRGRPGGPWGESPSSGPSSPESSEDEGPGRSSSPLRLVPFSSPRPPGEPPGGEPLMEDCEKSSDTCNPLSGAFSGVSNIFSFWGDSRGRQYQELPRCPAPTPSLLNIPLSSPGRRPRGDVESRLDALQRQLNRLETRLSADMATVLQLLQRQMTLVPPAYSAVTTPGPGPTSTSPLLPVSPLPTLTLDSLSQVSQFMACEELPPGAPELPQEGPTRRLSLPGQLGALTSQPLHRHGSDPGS
Procedure: The binding affinity of test drugs for the hERG cardiac K^+ channel was determined by their ability to displace tritiated dofetilide (a class III antiarrhythmic drug and potent hERG blocker) in membrane homogenates from HEK-293 cells heterogeneously expressing the hERG channel. The assay was performed as previously described G. J. Diaz et al., Journal of Pharmacological and Toxicological Methods, 50 (2004), 187-199). For this, drug dilutions were prepared from 10 mM DMSO stocks and the following were added to a 96-well polystyrene plate (Perkin-Elmer Optiplate): 20 μl of assay binding buffer (for total bounds), or 1 μM astemizole (for non-specific bounds), or test drug, 50 μl of [^3H]dofetilide (20 nM, ˜80 Ci/mmol specific activity), and 130 μl of membrane homogenate from HEK 293 cells stably transfected with hERG K^+ channels (final protein concentration of 30 μg per well). The plates were incubated at ambient temperature for 45 min, aspirated onto GF/B filter plates (Perkin-Elmer), and washed with 2 ml of cold wash buffer. After allowing the plates to dry, 50 μl of scintillant (Perkin-Elmer MicroScint 20) were added to each well and the radioactivity was counted in a Perkin-Elmer Topcount NXT scintillation counter. IC50 determinations were calculated from competition curves using 6 drug concentrations, half-log apart, starting at a high concentration of 100 μM (final assay DMSO concentration=1%) using a four-parameter logistic equation. The results are given as IC50 value.

D2/D3 (Ki (D2L)/Ki (D3)) [1]: +++ (+++>50)
Human mCl [2]: + (+: 20-120 μl min^−1 mg^−1)
Rat mCl [3]: + (+: 20-120 μl min^−1 mg^−1)
Ki [4]: < 0.01 µM
Structure (SMILES): COCCc1cc(N2CCN(CC[C@H]3CC[C@@H](NC(C)=O)CC3)[C@@H](C)C2)nc(C(C)(C)C)n1 [Compound 7, cis-N-[4-(2-{(2S)-4-[2-tert-Butyl-6-(2-methoxy-ethyl)-pyrimidin-4-yl]-2-methyl-piperazin-1-yl}-ethyl)-cyclohexyl]-acetamide]
IC50 (hERG cardiac K+ channel): > 10 µM
